Series [1] deals with T1, human STING variant H232R (WT) (Homo sapiens, UniProt Q86WV6, H232R).
T1 construct: expressed in transfected cells; host or cells: THP1-Blue ISG hSTING KO clone, retroviral MSCV-ires-GFP-Blasti
The series can be described thus: THP1-Blue ISG IRF-inducible SEAP reporter assay, STING H232R-variant. It is filed as cell-based. Conditions: THP1-Blue ISG hSTING KO cells expressing STING H232R; 24 hours incubation. The text has this: (§1) Activation of the STING protein expressed in cell lines results in an increase of interferon production. By the stable integration of an interferon regulatory factor (IRF)-inducible SEAP gene (secreted embryonic alkaline phosphatase) reporter construct the functional interferon signaling pathway can be monitored. Using Invivogen's THP1-Blue™ ISG colorimetric enzyme assay and a suitable optical density (OD) reader the activity of SEAP can be detected and quantified. This technique could be used to characterize pharmacological modification of the STING pathway.
(§2) Several single nucleotide polymorphisms have been identified in the human STING gene. To determine the activity of the above described compounds, THP1-Blue™ ISG reporter cell lines expressing the different human STING variants have been generated. To do so, the endogenous human STING was first deleted using the CRISPR/CAS9 system: THP1-Blue ISG cells were electroporated with ALL-IN-ONE CRISPR plasmids targeting the STING gene (purchased from Sigma encoding the gRNA and GFP as a reporter gene for successful transduction). GFP positive cells then were sorted 24 h post transfection and expanded. Cells were then dispersed in semisolid methocel medium to allow single cell clone isolations. Clones were then screened for cGAMP responsiveness using the Quanti-Blue™ reporter assay. Non-responsive clones were subsequently analysed for STING loss by western blotting and sequencing of the STING locus.
(§3) For the overexpression of the human STING variants, a confirmed THP1-Blue™ ISG hSTING KO clone was transduced with individual retroviral plasmids (MSCV-ires-GFP-Blasti) encoding the allelic variants of hSTING (WT (H232R), HAQ, R232H, AQ and R293Q). Transduced cells were sorted for different levels of GFP fluorescence and STING allele expression was analysed by western blot.
(§4) Measurements of SEAP activity were performed in THP1-Blue™ ISG cells stably expressing the different human STING isoforms and the IRF-inducible SEAP reporter construct. Cells were cultivated in RPMI1640 medium with 10% fetal calf serum, 50 μg/ml Penicillin-Streptomycin, 100 μg/ml Zeocin, and 100 μg/ml Normocin in a 37°, 95% humidity and 5% CO2 incubator.
(§5) In preparation for the assay, the cells were distributed into the assay plates with a density of 10000 cells/15 μL per well. Compounds were prepared by an 8 point serial dilution in 50% aqueous DMSO and a final dilution step into medium to ensure a final DMSO concentration of 0.5% in the assay. 5 μL of diluted compounds were added to the plates, followed by a 24 hours incubation at 37° C.
(§6) At the day of the assay, 75 μl per well of Quanti-Blue™ reagent was added to all wells of the plate and the plate was incubated another 30 minutes at 37° C. The OD at 620 nm was measured on the EnVision reader (PerkinElmer).
(In general: A reporter such as luciferase makes a cellular process visible.)

Series [2] deals with T2, human STING variant R232H (Homo sapiens, UniProt Q86WV6).
T2 construct: expressed in transfected cells; host or cells: THP1-Blue ISG hSTING KO clone, retroviral MSCV-ires-GFP-Blasti
The series can be described thus: THP1-Blue ISG IRF-inducible SEAP reporter assay, STING R232H-variant. It is filed as cell-based. Conditions: THP1-Blue ISG hSTING KO cells expressing STING R232H; 24 hours incubation.
Description: as §1, §2, §3, §4, §5, §6

A short description of series [3]: in vitro. Particulars: human, Caco-2, pH 7.4.
Description: Caco-2 cells were obtained from Leibniz Institute DSMZ-German Collection of Microorganisms and Cell Cultures (Braunschweig, Germany) and cultured in DMEM (Dulbecco's modified Eagle medium) containing (in final concentrations) 10% FCS (fetal calf serum), 1% NEAA (non-essential amino acids), 2 mM Glutamin, 100 U/mL Penicillin and 100 μg/mL Streptomycin. Caco-2 cells were seeded either onto 24-well Transwell inserts (Corning, #3379) for bidirectional permeability assays at a density of 160,000 cells/cm^2 and cultured for 3 weeks, with media change on every second day.
For bidirectional permeability assays 10 mM DMSO stock solutions were diluted in transport buffer (final concentrations: 128.13 mM NaCl, 5.36 mM KCl, 1 mM MgSO4, 1.8 mM CaCl2, 4.17 mM NaHCO3, 1.19 mM Na2HPO4, 0.41 mM NaH2PO4, 15 mM 2-[4-(2-hydroxyethyl)piperazin-1-yl]ethanesulfonic acid (HEPES), 20 mM glucose, pH 7.4) containing 0.25% bovine serum albumin to a final concentration of 10 μM of the test compounds and added to the apical or basal compartment. Cells were incubated with the compounds for up to 2 h. Samples from the opposite compartment were taken at different timepoints.
Compound concentrations in the compartments were quantified using a RapidFire-based high-throughput HPLC/MS/MS system (high performance liquid chromatography/mass spectrometry; BioCius) that was customized to a fully automated and flexible platform, termed RIAS. In this modified setup, the sample was aspirated by a vacuum pump into a 10 μL sample loop for 250 ms and flushed onto a C4 cartridge (3.8 μL bed volume; BioCius) with the aqueous mobile phase (99.9% water, 0.09% formic acid, and 0.01% TFA; flow rate 1.5 mL/min). Prior to bioanalysis samples were spiked with internal standard solution and diluted with acetonitrile (ACN) for protein precipitation. Measurement was operated in multiplereaction monitoring (MRM) mode. Quantification was performed using external calibration. A solid-phase extraction step retained the analyte for 3000 ms while interfering matrix (e.g., buffer components) was removed. With a simple step gradient, the analyte was back-eluted from the cartridge for 3,000 ms with the organic mobile phase (99.9% acetonitrile/methanol [1:1, v:v], 0.09% formic acid, and 0.01% TFA) and flushed into the mass spectrometer at a flow rate of 1.25 mL/min. Afterwards, the cartridge was reequilibrated with the aqueous mobile phase for 500 ms (flow rate 1.5 mL/min). The RapidFire software and a customized control software were obtained from BioCius. QuickQuan 2.3, Xcalibur 2.0.7, and XDK 2.1.0.25 were used to operate the TSQ Vantage mass spectrometer (ThermoFisher, San Jose, CA) integrated to the RapidFire system. Mass spectral data-processing software QuickCalc 7.1.9 was purchased from ThermoFisher. The Master software for the RIAS was programmed in-house using LabVIEW (version 8.6.1; National Instruments, Austin, TX). Data analysis was performed in AssayExplorer 3.2 (Symyx, Sunnyvale, CA), and correlation plots were visualized in Spotfire version 2.2.0 (TIBCO, Palo Alto, CA).
Apparent permeability coefficients in the apical to basal direction (Papp,AB) and in the basal to apical direction (Papp,BA) and efflux ratios were calculated as follows:
Efflux ratio=Papp,BA/Papp,AB
where Q is the amount of compound recovered in the receiver compartment after the incubation time t, C0 the initial compound concentration given to the donor compartment, and s the surface area of the Transwell inserts. […] In addition, transepithelial electrical resistance (TEER) values are measured for each plate before the permeability assay, and total recovery in donor and receiver compartments was determined for each compound.
In series [4] the target is T3, human STING variant HAQ (Homo sapiens, UniProt Q86WV6, G230A/H232R/R293Q/R71H).
T3 construct: expressed in transfected cells; host or cells: THP1-Blue ISG: either parental cells (endogenous HAQ) or hSTING KO clone retrovirally transduced with HAQ
The series can be described thus: THP1-Blue ISG IRF-inducible SEAP reporter assay, STING HAQ-variant. It is filed as cell-based. Conditions: THP1-Blue ISG cells expressing STING HAQ (parental or re-introduced); 24 hours incubation; SEAP OD 620 nm.
Description: as §1, §2, §3, §4, §5, §6
Data of EC50 values on STING HAQ-variant can be found in table 2a. Shown data below were either derived from the parental THP1-Blue™ ISG cell lines (which express endogenously HAQ) or from genetically engineered THP1-Blue™ ISG cell lines in which first STING has been knocked-out and the HAQ specific STING isoform has been re-introduced as described above.

The target of series [5] is T4, human STING variant AQ (Homo sapiens, UniProt Q86WV6, G230A/H232R/R293Q).
T4 construct: expressed in transfected cells; host or cells: THP1-Blue ISG hSTING KO clone, retroviral MSCV-ires-GFP-Blasti
The series can be described thus: THP1-Blue ISG IRF-inducible SEAP reporter assay, STING AQ-variant. Conditions: THP1-Blue ISG hSTING KO cells expressing STING AQ; 24 hours incubation. It is filed as cell-based.
Description: as §1, §2, §3, §4, §5, §6

For series [6], the target named is T5, human STING variant R293Q (Homo sapiens, UniProt Q86WV6, H232R/R293Q).
T5 construct: expressed in transfected cells; host or cells: THP1-Blue ISG hSTING KO clone, retroviral MSCV-ires-GFP-Blasti
The series can be described thus: THP1-Blue ISG IRF-inducible SEAP reporter assay, STING R293Q-variant. Particulars: THP1-Blue ISG hSTING KO cells expressing STING R293Q; 24 hours incubation. It is filed as cell-based.
Description: as §1, §2, §3, §4, §5, §6

For series [7], the system named is Human STING (hSTING, UNIPROT entry Q86WV6, residues 155-341). The series can be described thus: Interaction with hSTING by differential scanning fluorimetry (DSF). It is filed as binding. Particulars: 100 μM test compound, 5 μM hSTING protein. As to the method:
In DSF, the temperature at which a protein unfolds, also called the melting temperature Tm, is measured by changes in fluorescence of a dye that binds to the hydrophobic parts of the protein. Tm shifts upon binding of a small molecule are correlated with the binding affinity of this small molecule. As target protein, Human STING (hSTING, UNIPROT entry Q86WV6, residues 155-341, MW: 21578.4 Da; protein stock solution: c=1302 μM stock solution in 20 mM Tris, 100 mM NaCl, 2 mM TCEP pH 8.8) was used, as assay buffer 20 mM Tris, 150 mM NaCl pH7.5 was added where and as necessary.
Final concentrations of components in assay: 100 μM test compounds, 5 μM target protein, “5×” SYPR Orange (from stock solution SYPRO orange solution in DMSO (invitrogen cat.-no. 56650-500ul), concentration “5000×”)
Assay Procedure: • 1) Dilutions of compound stock solutions (10 mM in DMSO) were prepared in assay buffer (20 mM Tris, 150 mM NaCl; pH7.5) • 2) 5 μl fluorescent dye stock solution (5000×SYPRO Orange in DMSO) was mixed with 19 μl target protein (1302 μM) and 976 μl assay buffer. • 3) 2 μl of this protein-dye-mixture (25×SYPRO Orange and 25 μM Protein) was added to 8 μl diluted compound solution as prepared in step 1. Final volume was 10 μl. • 4) With every 20 compounds, two negative controls were measured. • 5) The plates were prepared for duplicate measurement and centrifuged for 2 min at 1000 g. • 6) For the measurement, a CFX384 Real-Time System (Bio-Rad) was used. The run consisted of 140 cycles with 0.5° C./cycle (temperature ramp 15 s/cycle, 25° C. to 95° C.).
Data analysis: The melting curves were processed in Bio-Rad CFX Manager. Peak type was set to “negative”. Two replicates of TM (melting temperature) measurements were averaged and the standard deviation was calculated.
(Differential scanning fluorimetry follows unfolding on heating by fluorescence.)

The structures appear in SMILES notation.

T3 sequence (Q86WV6 whole entry R71H/G230A/H232R/R293Q): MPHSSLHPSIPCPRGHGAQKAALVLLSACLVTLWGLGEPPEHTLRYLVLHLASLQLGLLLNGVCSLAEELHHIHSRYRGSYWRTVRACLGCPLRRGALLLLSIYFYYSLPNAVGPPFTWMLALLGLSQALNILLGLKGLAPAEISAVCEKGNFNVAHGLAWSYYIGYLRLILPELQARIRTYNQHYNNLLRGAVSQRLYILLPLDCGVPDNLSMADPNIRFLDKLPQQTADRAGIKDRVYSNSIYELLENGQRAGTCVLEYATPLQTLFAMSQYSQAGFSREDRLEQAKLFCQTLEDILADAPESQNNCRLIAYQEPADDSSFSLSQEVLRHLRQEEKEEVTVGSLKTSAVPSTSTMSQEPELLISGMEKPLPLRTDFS
T5 sequence (Q86WV6 whole entry H232R/R293Q): as the sequence (Q86WV6 whole entry R71H/G230A/H232R/R293Q) above, with H71R, A230G counted along it
T4 sequence (Q86WV6 whole entry G230A/H232R/R293Q): as the sequence (Q86WV6 whole entry R71H/G230A/H232R/R293Q) above, with H71R counted along it
T2 sequence (Q86WV6 whole entry, stated change not applied): as the sequence (Q86WV6 whole entry R71H/G230A/H232R/R293Q) above, with H71R, A230G, R232H, Q293R counted along it
T1 sequence (Q86WV6 whole entry H232R): as the sequence (Q86WV6 whole entry R71H/G230A/H232R/R293Q) above, with H71R, A230G, Q293R counted along it

By EC50 is commonly meant the concentration at which the effect is half-maximal. Usually Papp A→B stands for the apparent permeability from the apical to the basolateral side of a cell layer. The efflux ratio is a quotient of directional permeabilities that is used to spot active efflux. As for `Cc1cc(F)cc2c(-c3cccc4nn(C)cc34)nn(-c3ccc(N4CCC(C(=O)O)CC4)nc3)c12` [compound 4, 1-(5-(5-Fluoro-2′,7-dimethyl-1H,2′H-[3,4′-biindazol]-1-yl)pyridin-2-yl)piperidine-4-carboxylic acid], the EC50 in series [1] turned out to be 300 nM; in series [2] it was 300 nM; in series [4] it was 700 nM; in series [5], 300 nM; in series [6], 500 nM. Further, the Papp A→B at 10 μM in series [3] was found to be 19 ×10⁻⁶ cm/s. In addition, the efflux ratio at 10 μM in series [3] turned out to be 1. Also, the “TM (changes in TM, thermal shift)” value in series [7] was 24 K.

With `Cc1cc(F)cc2c(-c3cccc4nn(C)cc34)nn(-c3ccc(N4C[C@@H]5[C@H](C4)[C@H]5C(=O)O)nc3)c12` [compound 5, (1R,5S,6r)-3-(5-(5-fluoro-2′,7-dimethyl-1H,2′H-[3,4′-biindazol]-1-yl)pyridin-2-yl)-3-azabicyclo[3.1.0]hexane-6-carboxylic acid], the EC50 in series [1] was found to be 600 nM; in series [2], 300 nM; in series [4], 600 nM; in series [5], 400 nM; in series [6] it was 600 nM. The compound also came in with a Papp A→B at 10 μM in series [3] of 8 ×10⁻⁶ cm/s. Moreover, the efflux ratio at 10 μM in series [3] was 2.6. Also, the “TM (changes in TM, thermal shift)” value in series [7] is given as 26 K.

Regarding `Cc1c(Cl)ccc2c(-c3cccc4nn(C)cc34)nn(-c3ccc(N4C[C@@H]5[C@H](C4)[C@H]5C(=O)O)nc3)c12` [compound 8, (1R,5S,6r)-3-(5-(6-chloro-2′,7-dimethyl-1H,2′H-[3,4′-biindazol]-1-yl)pyridin-2-yl)-3-azabicyclo[3.1.0]hexane-6-carboxylic acid], the EC50 in series [1], in series [2], in series [4], in series [5] and in series [6] was 100 nM each time. Besides, the Papp A→B at 10 μM in series [3] was 11 ×10⁻⁶ cm/s. For the same compound, the efflux ratio at 10 μM in series [3] was 1.4. For the same compound, the “TM (changes in TM, thermal shift)” value in series [7] is listed as 22 K.

The values above are taken from patent publication US20240166629A1, “HETEROCYCLIC COMPOUNDS CAPABLE OF ACTIVATING STING” (Boehringer Ingelheim International GmbH, priority 2022, published 2024).
